Source: PubChem BioAssay (NCI)
Values joined by “and” are separate entries in the source; they are usually repeats but may differ in a detail not shown here. Equal entries are not always repeated.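 Step 1: Grow cells in 96-well plates. Step 2: Expose to compound for 48 hours at 5 concentrations. Step 3: Interpolate endpoints linearly; if unreached, use highest concentration. GI50 = concentration required for 50% inhibition of growth. TGI: total growth inhibition.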

Legend:
Test in all cases: NCI-60 cell line screen, 48 h
HS 578T breast = test system: HS 578T breast
OVCAR-5 ovarian = test system: OVCAR-5 ovarian
A549 NSCLC = test system: A549 NSCLC
SK-MEL-5 melanoma = test system: SK-MEL-5 melanoma
HT29 colon = test system: HT29 colon
SNB-19 CNS = test system: SNB-19 CNS
OVCAR-4 ovarian = test system: OVCAR-4 ovarian
SK-OV-3 ovarian = test system: SK-OV-3 ovarian
NCI-H460 lung = test system: NCI-H460 lung
BT-549 breast = test system: BT-549 breast

SMILES	GI50 (HS 578T breast)	TGI (HS 578T breast)	GI50 (OVCAR-5 ovarian)	TGI (OVCAR-5 ovarian)	GI50 (A549 NSCLC)	TGI (A549 NSCLC)	GI50 (SK-MEL-5 melanoma)	TGI (SK-MEL-5 melanoma)	GI50 (HT29 colon)	TGI (HT29 colon)	GI50 (SNB-19 CNS)	TGI (SNB-19 CNS)	GI50 (OVCAR-4 ovarian)	TGI (OVCAR-4 ovarian)	GI50 (SK-OV-3 ovarian)	TGI (SK-OV-3 ovarian)	GI50 (NCI-H460 lung)	TGI (NCI-H460 lung)	GI50 (BT-549 breast)	TGI (BT-549 breast)
Cn1ncc(Cl)c1-c1cc(C(=O)N[C@H](CN)Cc2cccc(F)c2)sc1Cl	0.2 µM and 0.339 µM	2.98 µM and 3.27 µM	2.2 µM and 2.69 µM	> 10 µM and 17.2 µM	0.946 µM and 2.32 µM	> 10 µM and 16 µM	1.96 µM and 3.64 µM	3.99 µM and 8.3 µM	0.733 µM and 2.03 µM	> 6.18 µM and 13.9 µM	0.34 µM and 0.783 µM	1.87 µM and 13.4 µM	4.9 µM and 6.33 µM	> 10 µM and 19.3 µM	0.242 µM and 0.34 µM	4.58 µM and 7.05 µM	0.406 µM and 0.568 µM	> 10 µM and 13.3 µM	0.518 µM and 1.33 µM	3.35 µM and 7.5 µM
Cc1ccc(CNc2ccc3nc(CCC4CCCCC4)[nH]c3c2)cc1	2.16 µM	7.06 µM	2.52 µM	8.18 µM	3.02 µM	17.6 µM	1.69 µM	3.09 µM	1.88 µM	5.19 µM	3.54 µM	> 100 µM	3.23 µM	18.7 µM	2.17 µM	5.44 µM	2.99 µM	8.6 µM	2.45 µM	7.34 µM
COc1ccccc1C#Cc1ccccc1C#Cc1ccc(OCCCCCCOc2ccccc2C#Cc2ccccc2C#Cc2ccccc2OC)cc1	> 100 µM	> 100 µM	> 100 µM	> 100 µM	> 100 µM	> 100 µM	> 100 µM	> 100 µM	> 100 µM	> 100 µM	> 100 µM	> 100 µM	> 100 µM	> 100 µM	> 100 µM	> 100 µM	> 100 µM	> 100 µM	> 100 µM	> 100 µM
O=c1cc(-c2ccc(F)cc2)[nH]c2ncccc12	–	> 100 µM	–	> 100 µM	–	> 100 µM	30.3 µM	> 100 µM	–	> 100 µM	–	> 100 µM	–	> 100 µM	–	> 100 µM	34.7 µM	> 100 µM	–	> 100 µM
COc1cc2nc(N3CCCN(C)CC3)nc(NC3CCN(Cc4ccccc4)CC3)c2cc1OC	2.04 µM	5.59 µM	4.47 µM	15.1 µM	2.94 µM	10.2 µM	1.73 µM	3.14 µM	1.33 µM	5.26 µM	4.28 µM	18.1 µM	1.81 µM	4.79 µM	3.19 µM	10.8 µM	2.19 µM	4.81 µM	1.94 µM	4.68 µM
CN(C)CCNc1ccc2ncn3c4ccc(O)cc4c(=O)c1c23	–	8.19 µM	–	15 µM	–	4.26 µM	–	8.52 µM	–	7.39 µM	–	17.2 µM	–	4.89 µM	–	17 µM	–	6.5 µM	–	28.1 µM
Cc1ccc2c(C(C[N+](=O)[O-])c3ccccc3)c(-c3ccccc3)[nH]c2c1 (configuration not stated)	16.8 µM	94.3 µM	85.3 µM	> 95 µM	18 µM	> 95 µM	50.6 µM	> 95 µM	20.9 µM	> 95 µM	43.7 µM	> 95 µM	42.4 µM	> 95 µM	33.8 µM	> 95 µM	30.1 µM	> 95 µM	34 µM	> 95 µM
COc1ccc(-c2ncnc3c2ncn3CC#CCCl)cc1	3.8 µM	22.1 µM	3.25 µM	12.1 µM	7.39 µM	30.7 µM	3.16 µM	12.4 µM	7.12 µM	24.6 µM	4.87 µM	18.1 µM	2.66 µM	12.5 µM	10.5 µM	22.7 µM	3.27 µM	12.4 µM	2.98 µM	13.6 µM
COC[C@H](NC(=O)c1cnc(C)s1)C(=O)N[C@@H](COC)C(=O)N[C@@H](Cc1ccccc1)C(=O)[C@@]1(C)CO1	26.5 µM	> 100 µM	33.3 µM	> 94 µM	42.9 µM	> 100 µM	19.9 µM	47.1 µM	21.1 µM	> 75.7 µM	> 65.3 µM	> 100 µM	44.4 µM	> 100 µM	> 94.9 µM	> 100 µM	37.1 µM	> 100 µM	14.3 µM	42.6 µM
Fc1cccc(COc2ccc(Nc3ncnc4onc(-c5ccccc5)c34)cc2)c1	0.0974 µM	2.02 µM	0.34 µM	29.3 µM	0.175 µM	> 100 µM	0.299 µM	30.4 µM	0.0495 µM	> 34 µM	0.339 µM	> 100 µM	0.988 µM	> 100 µM	0.459 µM	> 100 µM	0.0661 µM	> 53.3 µM	0.347 µM	> 100 µM
Cc1c(CN2CCN(C(=O)[C@H](C)O)CC2)sc2c(N3CCOCC3)nc(-c3cnc(N)nc3)nc12	0.0539 µM and 0.0446 µM	0.541 µM and 0.352 µM	0.192 µM and 0.128 µM	> 10 µM and 4.3 µM	0.439 µM and 0.207 µM	9.75 µM and 7.57 µM	0.397 µM and 0.174 µM	2.15 µM and 0.741 µM	0.207 µM and 0.174 µM	> 56.8 µM	0.898 µM and 0.313 µM	> 10 µM and 6.16 µM	0.346 µM and 0.144 µM	3.86 µM and 1.09 µM	0.123 µM and 0.112 µM	1.13 µM and 0.573 µM	0.12 µM and 0.108 µM	> 100 µM	0.146 µM and 0.065 µM	3.11 µM and 0.57 µM
Cc1ccc(S(=O)(=O)ON2C(=O)c3cccc4cc([N+](=O)[O-])cc(c34)C2=O)cc1	–	> 100 µM	–	> 100 µM	–	> 100 µM	–	> 100 µM	–	79.3 µM	–	> 100 µM	–	> 100 µM	–	> 100 µM	–	> 100 µM	–	> 100 µM
